Data taken from patent US9884063B2, “Amido-substituted azole compounds” (Bayer Pharma Aktiengesellschaft, priority 2014, dated 2018).

Biological target: T1, TNKS1 (Homo sapiens, UniProt O95271)
T1 sequence (O95271 1-1327): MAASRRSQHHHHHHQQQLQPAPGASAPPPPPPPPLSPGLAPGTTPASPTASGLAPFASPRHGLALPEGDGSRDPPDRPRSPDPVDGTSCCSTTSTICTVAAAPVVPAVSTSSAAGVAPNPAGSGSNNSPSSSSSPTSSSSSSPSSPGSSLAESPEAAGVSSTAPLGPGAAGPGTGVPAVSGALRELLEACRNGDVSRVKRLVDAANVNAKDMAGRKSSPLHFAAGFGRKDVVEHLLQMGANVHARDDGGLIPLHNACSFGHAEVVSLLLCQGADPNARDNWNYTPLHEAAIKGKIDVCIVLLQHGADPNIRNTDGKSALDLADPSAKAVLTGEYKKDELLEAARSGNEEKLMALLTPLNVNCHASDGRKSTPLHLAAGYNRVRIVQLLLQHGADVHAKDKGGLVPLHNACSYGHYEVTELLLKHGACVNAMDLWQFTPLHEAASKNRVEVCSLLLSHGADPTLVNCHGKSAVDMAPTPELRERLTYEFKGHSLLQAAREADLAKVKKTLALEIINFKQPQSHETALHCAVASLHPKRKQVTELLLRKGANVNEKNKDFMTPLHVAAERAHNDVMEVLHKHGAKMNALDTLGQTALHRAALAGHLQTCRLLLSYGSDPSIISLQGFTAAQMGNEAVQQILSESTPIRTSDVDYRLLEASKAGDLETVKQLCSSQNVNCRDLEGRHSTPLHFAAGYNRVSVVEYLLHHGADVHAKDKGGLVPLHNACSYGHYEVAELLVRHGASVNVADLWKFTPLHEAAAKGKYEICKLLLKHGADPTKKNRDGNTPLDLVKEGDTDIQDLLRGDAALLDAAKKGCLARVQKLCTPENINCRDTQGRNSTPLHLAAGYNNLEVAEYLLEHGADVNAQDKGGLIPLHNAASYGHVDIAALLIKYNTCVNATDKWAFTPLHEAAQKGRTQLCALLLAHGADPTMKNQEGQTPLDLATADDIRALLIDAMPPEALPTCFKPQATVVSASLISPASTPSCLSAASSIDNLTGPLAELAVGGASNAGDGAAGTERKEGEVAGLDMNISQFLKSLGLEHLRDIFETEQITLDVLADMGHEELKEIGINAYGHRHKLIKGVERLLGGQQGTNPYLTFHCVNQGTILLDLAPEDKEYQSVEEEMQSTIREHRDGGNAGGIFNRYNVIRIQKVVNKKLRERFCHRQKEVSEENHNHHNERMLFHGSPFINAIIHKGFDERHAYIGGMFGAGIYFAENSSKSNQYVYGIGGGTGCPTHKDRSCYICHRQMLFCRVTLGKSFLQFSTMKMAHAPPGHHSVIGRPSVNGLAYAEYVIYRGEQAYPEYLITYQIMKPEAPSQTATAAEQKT
Assay: Modified TNKS1 Assay 2 (auto-parsylation, [3H]-NAD+ SPA)
Format: biochemical
Settings: 6 nM TNKS1, 96 well

SMILES	IC50
COC(=O)c1nc[nH]c1C(=O)Nc1ccc(NC(=O)c2ccccc2Cl)c(OC)c1 [Example 98, methyl 5-({4-[(2-chlorobenzoyl)amino]-3-methoxyphenyl}carbamoyl)-1H-imidazole-4-carboxylate]	340 nM
COc1cc(NC(=O)c2[nH]cnc2C(=O)NCCN(C)C)ccc1NC(=O)c1ccc(F)cc1Cl [Example 96, N^5-{4-[(2-chloro-4-fluorobenzoyl)amino]-3-methoxyphenyl}-N^4-[2-(dimethylamino)ethyl]-1H-imidazole-4,5-dicarboxamide]	30 nM
COc1cc(NC(=O)c2[nH]cnc2C(=O)NCCN(C)C)ccc1NC(=O)c1ccccc1Cl [Example 100, N^5-{4-[(2-chlorobenzoyl)amino]-3-methoxyphenyl}-N^4-[2-(dimethylamino)ethyl]-1H-imidazole-4,5-dicarboxamide]	50 nM
Cc1cc(NC(=O)c2[nH]cnc2C(=O)NCCN2CCCCC2)ccc1NC(=O)c1ccccc1Cl [Example 89, N^5-{4-[(2-chlorobenzoyl)amino]-3-methylphenyl}-N^4-[2-(piperidin-1-yl)ethyl]-1H-imidazole-4,5-dicarboxamide]	30 nM
COc1cc(NC(=O)c2[nH]cnc2C(=O)NCCN2CCCCC2)ccc1NC(=O)c1ccc(F)cc1Cl [Example 97, N^5-{4-[(2-chloro-4-fluorobenzoyl)amino]-3-methoxyphenyl}-N^4-[2-(piperidin-1-yl)ethyl]-1H-imidazole-4,5-dicarboxamide]	60 nM
COC(=O)c1nc[nH]c1C(=O)Nc1ccc(NC(=O)c2ccc(F)cc2Cl)c(OC)c1 [Example 94, methyl 5-({4-[(2-chloro-4-fluorobenzoyl)amino]-3-methoxyphenyl}carbamoyl)-1H-imidazole-4-carboxylate]	440 nM
COC(=O)c1nc[nH]c1C(=O)Nc1ccc(NC(=O)c2ccccc2Cl)c(C)c1 [Example 86, methyl-5-({4-[(2-chlorobenzoyl)amino]-3-methylphenyl}carbamoyl)-1H-imidazole-4-carboxylate]	2600 nM
CNC(=O)c1nc[nH]c1C(=O)Nc1ccc(NC(=O)c2ccc(F)cc2Cl)c(OC)c1 [Example 95, N^5-{4-[(2-chloro-4-fluorobenzoyl)amino]-3-methoxyphenyl}-N^4-methyl-1H-imidazole-4,5-dicarboxamide]	80 nM

Continued, values first:

IC50	SMILES
20 nM	CN(C)CCNC(=O)c1nc[nH]c1C(=O)Nc1ccc(NC(=O)c2ccccc2Cl)nc1 [Example 113, N^5-{6-[(2-chlorobenzoyl)amino]pyridin-3-yl}-N^4-[2-(dimethylamino)ethyl]-1H-imidazole-4,5-dicarboxamide]
> 10000 nM	CNC(=O)c1[nH]c(C(C)C)nc1C(=O)Nc1ccc(NC(=O)c2ccc(F)cc2Cl)cc1 [Example 106, N^4-{4-[(2-chloro-4-fluorobenzoyl)amino]phenyl}-2-isopropyl-N^5-methyl-1H-imidazole-4,5-dicarboxamide]
250 nM	CNC(=O)c1nc[nH]c1C(=O)Nc1ccc(NC(=O)c2ccccc2Cl)nc1 [Example 112, N^5-{6-[(2-chlorobenzoyl)amino]pyridin-3-yl}-N^4-methyl-1H-imidazole-4,5-dicarboxamide]
> 10000 nM	COC(=O)c1nc[nH]c1C(=O)Nc1ccc(NC(=O)c2ccc(F)cc2)c(OC)c1 [Example 102, methyl 5-({4-[(4-fluorobenzoyl)amino]-3-methoxyphenyl}carbamoyl)-1H-imidazole-4-carboxylate]
